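Here, GI50 denotes the concentration required for 50% inhibition of growth. TGI: total growth inhibition.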
How the values were obtained:
Assay in all cases: NCI anticancer screen, dose series, 384-well format
A498 renal = test system: A498 renal
A549 NSCLC = test system: A549 NSCLC
ACHN renal = test system: ACHN renal
BT-549 breast = test system: BT-549 breast
CAKI-1 renal = test system: CAKI-1 renal
COLO 205 colon = test system: COLO 205 colon
DU-145 prostate = test system: DU-145 prostate
EKVX NSCLC = test system: EKVX NSCLC
HCC-2998 colon = test system: HCC-2998 colon
HCT-116 colon = test system: HCT-116 colon
HCT-15 colon = test system: HCT-15 colon
HL-60(TB) leukemia = test system: HL-60(TB) leukemia
HOP-62 NSCLC = test system: HOP-62 NSCLC
HOP-92 NSCLC = test system: HOP-92 NSCLC
HS 578T breast = test system: HS 578T breast
HT29 colon = test system: HT29 colon
IGROV1 ovarian = test system: IGROV1 ovarian
KM12 colon = test system: KM12 colon
LOX IMVI melanoma = test system: LOX IMVI melanoma
M14 melanoma = test system: M14 melanoma
MALME-3M melanoma = test system: MALME-3M melanoma
MCF7 breast = test system: MCF7 breast
MDA-MB-231 breast = test system: MDA-MB-231 breast
MDA-MB-435 melanoma = test system: MDA-MB-435 melanoma
MDA-MB-468 breast = test system: MDA-MB-468 breast
MOLT-4 leukemia = test system: MOLT-4 leukemia
NCI-H226 lung = test system: NCI-H226 lung
NCI-H23 lung = test system: NCI-H23 lung
NCI-H322M lung = test system: NCI-H322M lung
NCI-H460 NSCLC = test system: NCI-H460 NSCLC
NCI-H522 lung = test system: NCI-H522 lung
NCI/ADR-RES ovarian = test system: NCI/ADR-RES ovarian
OVCAR-3 ovarian = test system: OVCAR-3 ovarian
OVCAR-4 ovarian = test system: OVCAR-4 ovarian
OVCAR-5 ovarian = test system: OVCAR-5 ovarian
OVCAR-8 ovarian = test system: OVCAR-8 ovarian
PC-3 prostate = test system: PC-3 prostate
RPMI-8226 leukemia = test system: RPMI-8226 leukemia
RXF 393 renal = test system: RXF 393 renal
SF-268 CNS = test system: SF-268 CNS
SF-295 CNS = test system: SF-295 CNS
SF-539 CNS = test system: SF-539 CNS
SK-MEL-28 melanoma = test system: SK-MEL-28 melanoma
SK-MEL-5 melanoma = test system: SK-MEL-5 melanoma
SN12C renal = test system: SN12C renal
SNB-19 CNS = test system: SNB-19 CNS
SNB-75 CNS = test system: SNB-75 CNS
SR leukemia = test system: SR leukemia
T-47D breast = test system: T-47D breast
TK-10 renal = test system: TK-10 renal
U251 glioblastoma = test system: U251 glioblastoma
UACC-257 melanoma = test system: UACC-257 melanoma
UACC-62 melanoma = test system: UACC-62 melanoma

Cn1cc(-c2[nH]c3cc(NC(=O)[C@H](N)C4CCCCC4)cc4c3c2C=NNC4=O)cn1
GI50 (A498 renal): 91.6 nM
TGI (A498 renal): 277 nM
GI50 (A549 NSCLC): 4.66 µM
TGI (A549 NSCLC): 17.3 µM
GI50 (ACHN renal): 314 nM
TGI (ACHN renal): 954 nM
GI50 (BT-549 breast): 152 nM
TGI (BT-549 breast): 362 nM
GI50 (CAKI-1 renal): 531 nM
TGI (CAKI-1 renal): 12.4 µM
GI50 (COLO 205 colon): 489 nM
TGI (COLO 205 colon): 1710 nM
GI50 (DU-145 prostate): 359 nM
TGI (DU-145 prostate): 12.4 µM
GI50 (EKVX NSCLC): 538 nM
TGI (EKVX NSCLC): 11.4 µM
GI50 (HCC-2998 colon): 42 nM
TGI (HCC-2998 colon): 227 nM
GI50 (HCT-116 colon): 427 nM
TGI (HCT-116 colon): 6.28 µM
GI50 (HCT-15 colon): 2720 nM
TGI (HCT-15 colon): 9.18 µM
GI50 (HL-60(TB) leukemia): 204 nM
TGI (HL-60(TB) leukemia): 353 nM
GI50 (HOP-62 NSCLC): 203 nM
TGI (HOP-62 NSCLC): 483 nM
GI50 (HOP-92 NSCLC): 111 nM
TGI (HOP-92 NSCLC): 5.43 µM
GI50 (HS 578T breast): 191 nM
TGI (HS 578T breast): 847 nM
GI50 (HT29 colon): 1030 nM
TGI (HT29 colon): 2580 nM
GI50 (IGROV1 ovarian): 275 nM
TGI (IGROV1 ovarian): 960 nM
GI50 (KM12 colon): 466 nM
TGI (KM12 colon): 8.76 µM
GI50 (LOX IMVI melanoma): 312 nM
TGI (LOX IMVI melanoma): 1060 nM
GI50 (M14 melanoma): 195 nM
TGI (M14 melanoma): 402 nM
GI50 (MALME-3M melanoma): 781 nM
TGI (MALME-3M melanoma): 17.4 µM
GI50 (MCF7 breast): 176 nM
TGI (MCF7 breast): 12.7 µM
GI50 (MDA-MB-231 breast): 599 nM
TGI (MDA-MB-231 breast): 9.62 µM
GI50 (MDA-MB-435 melanoma): 166 nM
TGI (MDA-MB-435 melanoma): 340 nM
GI50 (MDA-MB-468 breast): 186 nM
TGI (MDA-MB-468 breast): 426 nM
GI50 (MOLT-4 leukemia): 201 nM
TGI (MOLT-4 leukemia): 347 nM
GI50 (NCI-H226 lung): 636 nM
TGI (NCI-H226 lung): 3.95 µM
GI50 (NCI-H23 lung): 276 nM
TGI (NCI-H23 lung): 1740 nM
GI50 (NCI-H322M lung): 198 nM
TGI (NCI-H322M lung): 894 nM
GI50 (NCI-H460 NSCLC): 3.09 µM
TGI (NCI-H460 NSCLC): 11.1 µM
GI50 (NCI-H522 lung): 219 nM
TGI (NCI-H522 lung): 627 nM
GI50 (NCI/ADR-RES ovarian): 4.97 µM
TGI (NCI/ADR-RES ovarian): 23.1 µM
GI50 (OVCAR-3 ovarian): 49.6 nM
TGI (OVCAR-3 ovarian): 209 nM
GI50 (OVCAR-4 ovarian): 29.6 nM
TGI (OVCAR-4 ovarian): 93.9 nM
GI50 (OVCAR-5 ovarian): 326 nM
TGI (OVCAR-5 ovarian): 953 nM
GI50 (OVCAR-8 ovarian): 153 nM
TGI (OVCAR-8 ovarian): 359 nM
GI50 (PC-3 prostate): 768 nM
TGI (PC-3 prostate): 13.4 µM
GI50 (RPMI-8226 leukemia): 1920 nM
TGI (RPMI-8226 leukemia): 3.37 µM
GI50 (RXF 393 renal): 211 nM
TGI (RXF 393 renal): 689 nM
GI50 (SF-268 CNS): 169 nM
TGI (SF-268 CNS): 10.9 µM
GI50 (SF-295 CNS): 339 nM
TGI (SF-295 CNS): 2300 nM
GI50 (SF-539 CNS): 38.1 nM
TGI (SF-539 CNS): 156 nM
GI50 (SK-MEL-28 melanoma): 761 nM
TGI (SK-MEL-28 melanoma): 16.4 µM
GI50 (SK-MEL-5 melanoma): 175 nM
TGI (SK-MEL-5 melanoma): 407 nM
GI50 (SN12C renal): 200 nM
TGI (SN12C renal): 856 nM
GI50 (SNB-19 CNS): 299 nM
TGI (SNB-19 CNS): 1090 nM
GI50 (SNB-75 CNS): 506 nM
TGI (SNB-75 CNS): 2990 nM
TGI (SR leukemia): 27.2 nM
GI50 (T-47D breast): 12.2 µM
TGI (T-47D breast): 24.7 µM
GI50 (TK-10 renal): 222 nM
TGI (TK-10 renal): 515 nM
GI50 (U251 glioblastoma): 320 nM
TGI (U251 glioblastoma): 1520 nM
GI50 (UACC-257 melanoma): 1420 nM
TGI (UACC-257 melanoma): 6.26 µM
GI50 (UACC-62 melanoma): 486 nM
TGI (UACC-62 melanoma): 18.2 µM

From PubChem BioAssay (NCI)
